# Assay results as given in patent US10626144B2, “Peptide derivatives and uses thereof” (Nosopharm, priority 2014, dated 2020).
# Square brackets hold non-standard residues; d marks the D form. Peptide text beside a SMILES is read from it. Pro(cis-4-CF3) = O=C(O)[C@@H]1C[C@H](C(F)(F)F)CN1; Pro(trans-4-F) = O=C(O)[C@@H]1C[C@@H](F)CN1; Pro(cis-4-F) = O=C(O)[C@@H]1C[C@H](F)CN1; Pro(4,4-F2) = O=C(O)[C@@H]1CC(F)(F)CN1; Pro(5S-Me) = C[C@H]1CC[C@@H](C(=O)O)N1; Dab(3S-OH) = NC[C@H](O)[C@H](N)C(=O)O; Met(O2) = CS(=O)(=O)CC[C@H](N)C(=O)O; Lys(iPr) = CC(C)NCCCC[C@H](N)C(=O)O; Met(O) = CS(=O)CC[C@H](N)C(=O)O; ΔZArg = N=C(N)NCC/C=C(\N)C(=O)O; NMeK = CN[C@@H](CCCCN)C(=O)O; dOrn = NCCC[C@@H](N)C(=O)O; hSer = N[C@@H](CCO)C(=O)O; NMeA = CN[C@@H](C)C(=O)O; Orn = NCCC[C@H](N)C(=O)O
# Experiments:
# Test in all cases: MIC, broth microdilution (CLSI), reference strain
# Settings in all cases: CAMHB
# [1] = test system: Acinetobacter baumannii ATCC 19606
# [2] = test system: Pseudomonas aeruginosa ATCC 27853
# [3] = test system: Staphylococcus aureus ATCC 13709
# [4] = test system: Escherichia coli ATCC 25922
Structure (SMILES),Ab: MIC Acinetobacter baumannii ATCC 19606 [1],Pa: MIC Pseudomonas aeruginosa ATCC 27853 [2],Sa: MIC Staphylococcus aureus ATCC 13709 [3],Ec: MIC Escherichia coli ATCC 25922 [4]
CC[C@H](C)[C@H](NC(=O)/C(=C/CCNC(=N)N)NC(=O)[C@H](CCCCN)NC(=O)[C@H](Cc1cnc[nH]1)NC(=O)[C@@H]1CCCN1C(=O)[C@@H](CCCN)NC(=O)CNC(=O)[C@H](C)NC(=O)[C@@H](NC(=O)[C@@H](N)CCCCN)[C@@H](O)CN)C(=O)O [24.123] (H-K[Dab(3S-OH)]AG[dOrn]PHK[ΔZArg]I-OH),− (>32 μg/mL),− (>32 μg/mL),+ (≤32 μg/mL),− (>32 μg/mL)
CN[C@@H](CCCCN)C(=O)N[C@H](C(=O)N[C@@H](C)C(=O)NCC(=O)N[C@H](CCCN)C(=O)N1CCC[C@H]1C(=O)N[C@@H](Cc1cnc[nH]1)C(=O)N[C@@H](CCCCN)C(=O)N/C(=C\CCNC(=N)N)C(=O)O)[C@@H](O)CN [24.126] (H-[NMeK][Dab(3S-OH)]AG[dOrn]PHK[ΔZArg]-OH),− (>32 μg/mL),− (>32 μg/mL),+ (≤32 μg/mL),+ (≤32 μg/mL)
CC(C)NCCCC[C@H](NC(=O)[C@H](Cc1cnc[nH]1)NC(=O)[C@@H]1CCCN1C(=O)[C@@H](CCCN)NC(=O)CNC(=O)[C@H](C)NC(=O)[C@@H](NC(=O)[C@@H](N)CCCCN)[C@@H](O)CN)C(=O)N[C@H](CCCNC(=N)N)C(N)=O [24.127] (H-K[Dab(3S-OH)]AG[dOrn]PH[Lys(iPr)][dR]-NH2),− (>32 μg/mL),− (>32 μg/mL),++ (≤8 μg/mL),+ (≤32 μg/mL)
C[C@H](NC(=O)[C@@H](NC(=O)[C@@H](N)CCCCN)[C@@H](O)CN)C(=O)NCC(=O)N[C@H](CCCN)C(=O)N1CCC[C@H]1C(=O)N[C@@H](Cc1cnc[nH]1)C(=O)N[C@@H](CCCN)C(=O)N[C@H](CCCNC(=N)N)C(N)=O [24.128] (H-K[Dab(3S-OH)]AG[dOrn]PH[Orn][dR]-NH2),− (>32 μg/mL),− (>32 μg/mL),++ (≤8 μg/mL),− (>32 μg/mL)
C[C@H](NC(=O)[C@@H](NC(=O)[C@@H](N)CCCCN)[C@@H](O)CN)C(=O)NCC(=O)N[C@H](CCCN)C(=O)N1CCC[C@H]1C(=O)N[C@@H](CCO)C(=O)N[C@@H](CCCCN)C(=O)N/C(=C\CCNC(=N)N)C(=O)O [24.129] (H-K[Dab(3S-OH)]AG[dOrn]P[hSer]K[ΔZArg]-OH),− (>32 μg/mL),− (>32 μg/mL),− (>32 μg/mL),− (>32 μg/mL)
COCC[C@H](NC(=O)[C@@H]1CCCN1C(=O)[C@@H](CCCN)NC(=O)CNC(=O)[C@H](C)NC(=O)[C@@H](NC(=O)[C@@H](N)CCCCN)[C@@H](O)CN)C(=O)N[C@@H](CCCCN)C(=O)N/C(=C\CCNC(=N)N)C(=O)O [24.130] (H-K[Dab(3S-OH)]AG[dOrn]P[hSer](Me)K[ΔZArg]-OH),− (>32 μg/mL),− (>32 μg/mL),+ (≤32 μg/mL),− (>32 μg/mL)
CSCC[C@H](NC(=O)[C@@H]1CCCN1C(=O)[C@@H](CCCN)NC(=O)CNC(=O)[C@H](C)NC(=O)[C@@H](NC(=O)[C@@H](N)CCCCN)[C@@H](O)CN)C(=O)N[C@@H](CCCCN)C(=O)N/C(=C\CCNC(=N)N)C(=O)O [24.131] (H-K[Dab(3S-OH)]AG[dOrn]PMK[ΔZArg]-OH),− (>32 μg/mL),− (>32 μg/mL),+ (≤32 μg/mL),+ (≤32 μg/mL)
C[C@H](NC(=O)[C@@H](NC(=O)[C@@H](N)CCCCN)[C@@H](O)CN)C(=O)NCC(=O)N[C@H](CCCN)C(=O)N1CCC[C@H]1C(=O)N[C@@H](CC[S+](C)[O-])C(=O)N[C@@H](CCCCN)C(=O)N/C(=C\CCNC(=N)N)C(=O)O (stereo partly drawn) [24.132] (H-K[Dab(3S-OH)]AG[dOrn]P[Met(O)]K[ΔZArg]-OH),− (>32 μg/mL),− (>32 μg/mL),− (>32 μg/mL),− (>32 μg/mL)
C[C@H](NC(=O)[C@@H](NC(=O)[C@@H](N)CCCCN)[C@@H](O)CN)C(=O)NCC(=O)N[C@H](CCCN)C(=O)N1CCC[C@H]1C(=O)N[C@@H](CCS(C)(=O)=O)C(=O)N[C@@H](CCCCN)C(=O)N/C(=C\CCNC(=N)N)C(=O)O [24.133] (H-K[Dab(3S-OH)]AG[dOrn]P[Met(O2)]K[ΔZArg]-OH),− (>32 μg/mL),− (>32 μg/mL),+ (≤32 μg/mL),− (>32 μg/mL)
C[C@H](NC(=O)[C@@H](NC(=O)[C@@H](N)CCCCN)[C@@H](O)CN)C(=O)NCC(=O)N[C@H](CCCN)C(=O)N1CCC[C@H]1C(=O)N[C@@H](Cc1ccccc1)C(=O)N[C@@H](CCCCN)C(=O)N/C(=C\CCNC(=N)N)C(=O)O [24.134] (H-K[Dab(3S-OH)]AG[dOrn]PFK[ΔZArg]-OH),− (>32 μg/mL),− (>32 μg/mL),++ (≤8 μg/mL),+ (≤32 μg/mL)
COC[C@H](NC(=O)[C@@H]1CCCN1C(=O)[C@@H](CCCN)NC(=O)CNC(=O)[C@H](C)NC(=O)[C@@H](NC(=O)[C@@H](N)CCCCN)[C@@H](O)CN)C(=O)N[C@@H](CCCCN)C(=O)N/C(=C\CCNC(=N)N)C(=O)O [24.136] (H-K[Dab(3S-OH)]AG[dOrn]PS(Me)K[ΔZArg]-OH),− (>32 μg/mL),− (>32 μg/mL),− (>32 μg/mL),− (>32 μg/mL)
C[C@H](NC(=O)[C@@H](NC(=O)[C@@H](N)CCCCN)[C@@H](O)CN)C(=O)NCC(=O)N[C@H](CCCN)C(=O)N1CCC[C@H]1C(=O)N[C@H](C(=O)N[C@@H](CCCCN)C(=O)N/C(=C\CCNC(=N)N)C(=O)O)[C@@H](C)O [24.137] (H-K[Dab(3S-OH)]AG[dOrn]PTK[ΔZArg]-OH),− (>32 μg/mL),− (>32 μg/mL),+ (≤32 μg/mL),− (>32 μg/mL)
"C[C@H](NC(=O)[C@@H](NC(=O)[C@@H](N)CCCCN)[C@@H](O)CN)C(=O)NCC(=O)N[C@H](CCCN)C(=O)N1CC(F)(F)C[C@H]1C(=O)N[C@@H](Cc1cnc[nH]1)C(=O)N[C@@H](CCCCN)C(=O)N/C(=C\CCNC(=N)N)C(=O)O [24.141] (H-K[Dab(3S-OH)]AG[dOrn][Pro(4,4-F2)]HK[ΔZArg]-OH)",− (>32 μg/mL),− (>32 μg/mL),++ (≤8 μg/mL),− (>32 μg/mL)
C[C@H](NC(=O)[C@@H](NC(=O)[C@@H](N)CCCCN)[C@@H](O)CN)C(=O)NCC(=O)N[C@H](CCCN)C(=O)N1C[C@H](F)C[C@H]1C(=O)N[C@@H](Cc1cnc[nH]1)C(=O)N[C@@H](CCCCN)C(=O)N/C(=C\CCNC(=N)N)C(=O)O [24.142] (H-K[Dab(3S-OH)]AG[dOrn][Pro(trans-4-F)]HK[ΔZArg]-OH),− (>32 μg/mL),− (>32 μg/mL),+ (≤32 μg/mL),+ (≤32 μg/mL)
C[C@H](NC(=O)[C@@H](NC(=O)[C@@H](N)CCCCN)[C@@H](O)CN)C(=O)NCC(=O)N[C@H](CCCN)C(=O)N1C[C@@H](C(F)(F)F)C[C@H]1C(=O)N[C@@H](Cc1cnc[nH]1)C(=O)N[C@@H](CCCCN)C(=O)N/C(=C\CCNC(=N)N)C(=O)O [24.143] (H-K[Dab(3S-OH)]AG[dOrn][Pro(cis-4-CF3)]HK[ΔZArg]-OH),− (>32 μg/mL),− (>32 μg/mL),++ (≤8 μg/mL),+ (≤32 μg/mL)
C[C@H](NC(=O)[C@@H](NC(=O)[C@@H](N)CCCCN)[C@@H](O)CN)C(=O)NCC(=O)N[C@H](CCCN)C(=O)N1C[C@@H](F)C[C@H]1C(=O)N[C@@H](Cc1cnc[nH]1)C(=O)N[C@@H](CCCCN)C(=O)N/C(=C\CCNC(=N)N)C(=O)O [24.144] (H-K[Dab(3S-OH)]AG[dOrn][Pro(cis-4-F)]HK[ΔZArg]-OH),− (>32 μg/mL),− (>32 μg/mL),++ (≤8 μg/mL),+ (≤32 μg/mL)
C[C@H](NC(=O)[C@@H](NC(=O)[C@@H](N)CCCCN)[C@@H](O)CN)C(=O)NCC(=O)N[C@H](CCCN)C(=O)N1[C@@H](C)CC[C@H]1C(=O)N[C@@H](Cc1cnc[nH]1)C(=O)N[C@@H](CCCCN)C(=O)N/C(=C\CCNC(=N)N)C(=O)O [24.145] (H-K[Dab(3S-OH)]AG[dOrn][Pro(5S-Me)]HK[ΔZArg]-OH),− (>32 μg/mL),− (>32 μg/mL),++ (≤8 μg/mL),+ (≤32 μg/mL)
C[C@H](NC(=O)[C@@H](NC(=O)[C@@H](N)CCCCN)[C@@H](O)CN)C(=O)NCC(=O)N[C@H](CCCN)C(=O)N(C)[C@@H](C)C(=O)N[C@@H](Cc1cnc[nH]1)C(=O)N[C@@H](CCCCN)C(=O)N/C(=C\CCNC(=N)N)C(=O)O [24.146] (H-K[Dab(3S-OH)]AG[dOrn][NMeA]HK[ΔZArg]-OH),− (>32 μg/mL),− (>32 μg/mL),− (>32 μg/mL),− (>32 μg/mL)
